Tests used:
RPMI-8226 = details: for TGI: RPMI-8226 (Leukemia), 48 h, SRB; for TI (Therapeutic Index): GI50 (normal blood lymphocyte)/GI50 (RPMI-8226)
A549/ATCC = A549/ATCC (Non-Small Cell Lung Cancer), 48 h, SRB
EKVX [1] = details: EKVX (Non-Small Cell Lung Cancer), 48 h, SRB
NCI-H460 = NCI-H460 (Non-Small Cell Lung Cancer), 48 h, SRB
HCT-116 = HCT-116 (Colon Cancer), 48 h, SRB
786-0 = 786-0 (Renal Cancer), 48 h, SRB
SN12C = SN12C (Renal Cancer), 48 h, SRB
PC-3 = PC-3 (Prostate Cancer), 48 h, SRB
EKVX [2] = assay: cells; details: Homo sapiens, 48 h; for CC50: read-out: LC50
HOP-62 = assay: cells; details: Homo sapiens, HOP-62, 48 h; for CC50: read-out: LC50
SNB-75 = assay: cells; details: Homo sapiens, SNB-75, 48 h; for CC50: read-out: LC50
U251 = assay: cells; details: Homo sapiens, U-251, 48 h; for CC50: read-out: LC50
LOX IMVI = assay: cells; details: Homo sapiens, 48 h; for CC50: read-out: LC50
SK-MEL-28 = assay: cells; details: Homo sapiens, SK-MEL-28, 48 h; for CC50: read-out: LC50
HT-29 = assay: NCI DTP 60 cell line screen, SRB; details: for TGI: HT-29 (Colon Cancer), 48 h, SRB; for GI50 / CC50: Homo sapiens, HT-29, 48 h; for CC50: read-out: LC50
SNB-19 = assay: NCI DTP 60 cell line screen, SRB; details: for GI50 / CC50: Homo sapiens, SNB-19, 48 h; for CC50: read-out: LC50; for TGI: SNB-19 (CNS Cancer), 48 h, SRB
IGROV1 = assay: NCI DTP 60 cell line screen, SRB; details: for GI50 / CC50: Homo sapiens, IGROV-1, 48 h; for CC50: read-out: LC50; for TGI: IGROV1 (Ovarian Cancer), 48 h, SRB
in vitro = details: human
Procedure: (§1) Another part of our study was to determine the influence of compounds 2f, 2i, 2j, and 2h on normal human blood lymphocytes (Figure 5). […] Thus, normal blood lymphocytes are blood cells, as well as cells of leukemia cell lines, therapeutic index (TI) of compounds 2f, 2h, and 2j was calculated as GI50 (normal blood lymphocyte)/GI50 (leukemia cell line) (Table 5).
(§2) Figure 5 Human lymphocyte viability after 48 h of 2f, 2i, 2j, 2h, and Ciminalum drug exposure was estimated by MTT assay.
(§3) The assay was performed by using 3-(4,5-dimethylthiazole-2-yl)- 2,5-diphenyltetrazolium bromide (MTT). Confluent cells, cultured for 24 h with 0.1, 1, 5, 10, 20, 30, and 100 µM concentrations of studied compounds in 24-well plates were washed with PBS. MTT was dissolved in PBS, and 25 µL were added to each well. Plates were incubated for 4 h at 37 °C in 5% CO2 in an incubator. The medium with MTT was removed, and 1 mL of DMSO was added to the attached cells. Furthermore, cells were incubated for 5–10 min in RT and then 10 µl of Sorensen buffer was added to each well. The absorbance of converted dye in living cells was measured at a wavelength of 570 nm. The cell viability of breast cancer cells, gastric cancer cells, and human colon cancer cells cultured in the presence of ligands was calculated as percent of control cells.
(§4) First, 20 mL of venous blood was taken from volunteers (Ethical protocol number 2, 27 January 2019) and collected in the presence of 200 μL of undiluted fresh heparin (1/100). Sterile blood was diluted 2 times with 0.9% NaCl under the sterile conditions. Isolation of lymphocytes was performed in a density gradient of ficol-verografin using the protocol of the manufacturer (Lympoprep, NYCOMED PHARMA AS, Oslo Norway). The resulting lymphocytes were resuspended in the RPMI-1640 medium and cultured for several days (up to 10 days). To separate the lymphocytes from the monocytes, cell suspension was left for 24 h. After 24 h of culture, monocytes were attached, while lymphocytes were transferred to a fresh Falcon tube (15 mL). To stimulate the proliferation of lymphocytes, they were cultured on CD3+ antibody-coated plastic plate in the RPMI-1640 medium supplemented with 20% FBS.

[3] = system: normal human blood lymphocytes; assay: in vitro
Procedure: as §1, §2, §3, §4

Row | SMILES | TGI (RPMI-8226) | TGI (A549/ATCC) | TGI (EKVX [1]) | TGI (NCI-H460) | TGI (HCT-116) | TGI (786-0) | TGI (SN12C) | TGI (PC-3) | GI50 (EKVX [2]) | CC50 (EKVX [2]) | GI50 (HOP-62) | CC50 (HOP-62) | GI50 (U251) | CC50 (U251) | GI50 (LOX IMVI) | CC50 (LOX IMVI) | GI50 (SNB-19) | CC50 (SNB-19) | TGI (SNB-19) | GI50 (IGROV1) | other results
1 | O=C1NC(=S)S/C1=C\C(Cl)=C\c1ccc([N+](=O)[O-])cc1 [Compound 2b, 5-[(Z,2Z)-2-Chloro-3-(4-nitrophenyl)-2-propenylidene]-2-thioxo-4-thiazolidinone] | 20.6 µM | > 50 µM | > 50 µM | 18.6 µM | 11.0 µM | 18.8 µM | 18.0 µM | > 50 µM | 2.76 µM | > 50 µM | 15.4 µM | > 50 µM | 3.09 µM | 22.1 µM | 6.6 µM | 36 µM | 8.1 µM | > 50 µM | 21.4 µM | 7.28 µM | GI50 (SNB-75): 7.59 µM; CC50 (SNB-75): > 50 µM; GI50 (SK-MEL-28): 5.87 µM; CC50 (SK-MEL-28): 25.9 µM; TGI (HT-29): 9.48 µM; GI50 (HT-29): 1.48 µM; CC50 (HT-29): > 50 µM; CC50 (IGROV1): > 50 µM; TGI (IGROV1): 21.1 µM
2 | O=C1/C(=C/C(Cl)=C/c2ccc([N+](=O)[O-])cc2)SC(=S)N1/N=C\C(Cl)=C\c1ccc([N+](=O)[O-])cc1 [Compound 2c, 5-[(Z,2Z)-2-Chloro-3-(4-nitrophenyl)-2-propenylidene]-3-[(Z,2Z)-2-chloro-3-(4-nitrophenyl)-2-propenylideneamino]-2-thioxo-4-thiazolidinone] | 6.32 µM | 42.6 µM | 47.7 µM | 32.3 µM | 6.51 µM | 30.7 µM | > 100 µM | 45.8 µM | 23.7 µM | 96.1 µM | 17.2 µM | 91.9 µM | 8.03 µM | 65.8 µM | 13 µM | 63.8 µM | 48.3 µM | > 100 µM | > 100 µM | 13.3 µM | CC50 (IGROV1): 58.9 µM; TGI (IGROV1): 28.0 µM
3 | O=C1/C(=C/C(Cl)=C/c2ccc([N+](=O)[O-])cc2)SC(=S)N1c1ccc(O)cc1 [Compound 2f, 5-[(Z,2Z)-2-Chloro-3-(4-nitrophenyl)-2-propenylidene]-3-(4-hydroxyphenyl)-2-thioxo-4-thiazolidinone] | 0.264 µM | 6.47 µM | 16.2 µM | > 100 µM | 2.96 µM | 3.83 µM | 4.41 µM | 84.8 µM | 2.37 µM | > 100 µM | 2.61 µM | 11.6 µM | 0.368 µM | 38.9 µM | 1.17 µM | > 100 µM | 10 µM | 97.5 µM | 32.0 µM | 1.63 µM | GI50 at 48 h (in vitro): > 100 µM; toxicity toward normal human blood lymphocytes [3]: low toxicity; TI (Therapeutic Index) (RPMI-8226): >10,000; GI50 (SNB-75): 25.1 µM; CC50 (SNB-75): > 100 µM; GI50 (SK-MEL-28): 4.49 µM; CC50 (SK-MEL-28): > 100 µM; TGI (HT-29): > 100 µM; GI50 (HT-29): 2.14 µM; CC50 (HT-29): > 100 µM; CC50 (IGROV1): > 100 µM; TGI (IGROV1): 6.13 µM
4 | O=C(O)CCN1C(=O)/C(=C/C(Cl)=C/c2ccc([N+](=O)[O-])cc2)SC1=S [Compound 2h, 3-{5-[(Z,2Z)-2-Chloro-3-(4-nitrophenyl)-2-propenylidene]-4-oxo-2-thioxothiazolidin-3-yl}propanoic acid] | 1.30 µM | 7.62 µM | 4.01 µM | 3.32 µM | 1.19 µM | 2.47 µM | 2.99 µM | 13.7 µM | 0.334 µM | 55.6 µM | 6.54 µM | 52.8 µM | 0.149 µM | > 100 µM | 0.161 µM | > 100 µM | 0.658 µM | 83.7 µM | 26.3 µM | 0.794 µM | GI50 at 48 h (in vitro): 54.5 µM; toxicity toward normal human blood lymphocytes [3]: low toxicity; TI (Therapeutic Index) (RPMI-8226): 395.22; GI50 (SNB-75): 12.5 µM; CC50 (SNB-75): > 100 µM; GI50 (SK-MEL-28): 3.59 µM; CC50 (SK-MEL-28): 89.5 µM; TGI (HT-29): 2.77 µM; GI50 (HT-29): 1.25 µM; CC50 (HT-29): > 100 µM; CC50 (IGROV1): 43.1 µM; TGI (IGROV1): 3.68 µM
5 | O=C(O)C(Cc1ccccc1)N1C(=O)/C(=C/C(Cl)=C/c2ccc([N+](=O)[O-])cc2)SC1=S (stereo not drawn) [Compound 2j, 2-{5-[(Z,2Z)-2-Chloro-3-(4-nitrophenyl)-2-propenylidene]-4-oxo-2-thioxothiazolidin-3-yl}-3-phenylpropanoic acid] | > 100 µM | > 100 µM | 7.29 µM | > 100 µM | 5.47 µM | 5.01 µM | > 100 µM | 7.98 µM | 2.59 µM | > 100 µM | 2.31 µM | > 100 µM | 1.72 µM | 7.21 µM | 1.64 µM | 6.46 µM | 1.85 µM | > 100 µM | > 100 µM | 2.99 µM | GI50 at 48 h (in vitro): 49 µM; toxicity toward normal human blood lymphocytes [3]: low toxicity; TI (Therapeutic Index) (RPMI-8226): 15.21; GI50 (SNB-75): 1.96 µM; CC50 (SNB-75): > 100 µM; GI50 (SK-MEL-28): 2.16 µM; CC50 (SK-MEL-28): 11.6 µM; TGI (HT-29): 8.47 µM; GI50 (HT-29): 2.84 µM; CC50 (HT-29): > 100 µM; CC50 (IGROV1): > 100 µM; TGI (IGROV1): > 100 µM

Source: paper PMC8161026, “Synthesis and Anticancer Activity Evaluation of 5-[2-Chloro-3-(4-nitrophenyl)-2-propenylidene]-4-thiazolidinones” (Molecules, 2021)
